Source: paper PMC8533391 (2021)

Test system: d(GTTAATCGCTGG) double-stranded DNA 12-oligomer (DNA, duplex) GTTAATCGCTGG/CCAGCGATTAAC
Test: UV melting at 260 nm
Details: Na+ (0.05 mM NaOH), 10 μM compound, 2.5 μM DNA, cacodylate, pH 7.2

Structure (SMILES)	ΔTm (derived from two Tm (46.2 ± 0.8, free 48.3 ± 0.3))	ΔTm (derived from two Tm (47.4 ± 0.6, free 48.3 ± 0.3))
C(=N\[C@H]1CC[C@H](/N=C/c2nccs2)CC1)/c1nccs1.C(=N\[C@H]1CC[C@H](/N=C/c2nccs2)CC1)/c1nccs1.[Ag+].[Ag+]	-2.1 °C	
C(=N\[C@H]1CC[C@H](/N=C/c2nccs2)CC1)/c1nccs1		-0.9 °C
